From patent US20260297070A1, “CYCLIC [COMPOUND LEFT OUT] WRN INHIBITORS” (Nimbus Wadjet, Inc., priority 2023, published 2026) come the findings set out here.

The target in this test is T1, human Werner helicase (WRN-BV08, Uniprot Q14191, amino acids 517-1235 with L1074F point mutation) (Homo sapiens, UniProt Q14191, L1074F).
T1 construct: Uniprot Q14191, amino acids 517-1235 with L1074F point mutation; TEV-cleavable 8×His (C, cleaved yes); made in house; host or cells: Sf9 insect cells (baculovirus)
T1 sequence (Q14191 with tags, fused parts or gaps L1074F limits assumed): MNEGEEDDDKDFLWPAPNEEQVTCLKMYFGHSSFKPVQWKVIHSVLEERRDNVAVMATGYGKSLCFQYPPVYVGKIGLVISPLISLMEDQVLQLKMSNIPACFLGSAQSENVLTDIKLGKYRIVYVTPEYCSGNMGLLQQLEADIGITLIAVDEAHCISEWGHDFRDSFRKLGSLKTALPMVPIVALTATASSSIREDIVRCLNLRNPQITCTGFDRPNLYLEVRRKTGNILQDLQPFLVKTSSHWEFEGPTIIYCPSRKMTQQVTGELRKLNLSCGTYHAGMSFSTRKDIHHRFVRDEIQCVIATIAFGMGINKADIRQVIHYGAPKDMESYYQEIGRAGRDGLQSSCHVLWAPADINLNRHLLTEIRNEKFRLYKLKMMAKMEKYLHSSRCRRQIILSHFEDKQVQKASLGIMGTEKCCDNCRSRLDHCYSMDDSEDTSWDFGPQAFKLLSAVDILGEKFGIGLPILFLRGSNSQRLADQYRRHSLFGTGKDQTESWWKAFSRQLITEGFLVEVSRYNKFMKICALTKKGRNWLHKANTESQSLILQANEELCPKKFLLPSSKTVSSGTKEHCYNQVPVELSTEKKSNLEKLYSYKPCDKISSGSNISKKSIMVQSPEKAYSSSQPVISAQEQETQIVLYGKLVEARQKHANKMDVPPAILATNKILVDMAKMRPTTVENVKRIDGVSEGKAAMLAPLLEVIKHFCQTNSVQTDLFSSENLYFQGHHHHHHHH
In words: WRN (BV08) ADP-Glo Assay. To be noted: 0.15 nM WRN, 5 μM ATP, 0.1 nM DNA duplex, 15 min preincubation, 60 min at 25° C., pH 7.5, 1% DMSO; read-out: ADP-Glo_hWRN_IC50. Format: biochemical. The text has this: Example 2: WRN (BV08) ADP-Glo Assay Protocol
Bovine skin gelatin (BSG), dimethyl sulfoxide (DMSO), Pluronic F-127 and Tris(2-carboxyethyl)phosphine hydrochloride solution (TCEP) were purchased from Sigma-Aldrich at the highest level of purity possible. Bicine buffer solution was purchased from Alfa Aesar and compound NSC-617145 was purchased from Tocris. DNA duplex was synthesized at BGI (Shenzhen, China) and was composed of strand 1 with the sequence 5′-[…]-3′ (SEQ ID NO.: 1) and strand 2 with the sequence 5′-[…]-3′ (SEQ ID NO.: 2). DNA strands were annealed by heating to 95° C. for 5 minutes followed by slow cooling to room temperature. Compounds in 100% DMSO (0.1 μl) were spotted into a 384-well white polystyrene Optiplate-384 (Perkin Elmer) assay plate using a LabCyte Echo 550 (Agilent). DMSO (0.1 μl) was added to columns 12, rows A-H and column 24, rows I-P for the maximum signal control. Compound NSC-617145 (0.1 μl) was added to columns 12, rows I-P and 24, rows A-H for the minimum signal control (100% inhibition). Compounds/DMSO were preincubated for 15 minutes at 25° C. with 5 uL 2×WRN (BV08), prepared as described below, in assay buffer containing 20 mM Bicine (pH=7.5), 1 mM MgCl2, 10 mM KCl, 0.1% Pluronic F-127, 0.005% BSG, 1 mM TCEP. The reaction was initiated by the addition of 5 μl 2× substrate mixture in assay buffer and incubated for 60 minutes at 25° C. The final concentrations of the assay components were 0.15 nM WRN, 5 μM ATP, and 0.1 nM DNA duplex. The final DMSO concentration was 1% and the reference compound concentration (NSC-617145) used for the minimal signal control was 20 μM. The reaction was stopped by the addition of the ADP-Glo Kit components (Promega) as directed and the relative luminescence units (RLU) were read on an Envision 2104 (Perkin Elmer).
% Inhibition Calculation:
Where RLU=relative luminescence units, sample=signal in sample well, and MIN and MAX are the respective minimum and maximum signal controls.
Four-Parameter IC50 Fit Equation:
Where top and bottom are normally allowed to float but may be fixed at 100 or 0 respectively in a 3-parameter fit. Y is the % inhibition and X is the compound concentration.
Molecular Biology and virus production. The DNA encoding human Werner helicase (Uniprot Q14191, amino acids 517-1235 with L1074F point mutation) was generated with codon-optimization for E. coli expression and subcloned into the pFastBac vector with a TEV cleavable 8×His tag (WRN-BV08). The baculovirus from the expression plasmid WRN-BV08 was generated from transfection and amplification following the manufacturer's instructions.
Sf9 cells grown in SF900II media were infected with 1:200 WRN-BV08 P2 virus and incubated for protein expression for 72 h at 27° C. The WRN protein was purified using the following protocol. The cell pellets were thawed and resuspended in buffer A (50 mM Tris, pH 7.5, 500 mM NaCl, 1 mM TCEP, 10% Glycerol) supplemented with 0.5% CHAPS, 1 mM [COMPOUND LEFT OUT], 1 μg/mL Leupeptin, 1 μg/mL Pepstatin, and the Pierce Universal Nuclease and cocktail tablet. Cleared lysates were loaded onto a Ni Sepharose™ excel column and washed with buffer A and bound protein was eluted with buffer A supplemented with 300 mM imidazole. The eluted protein was dialyzed against buffer A and digested by His-tagged TEV (1:5 ratio) overnight at 4° C. ZnCl2 was added into the sample at final 15 μM before loading onto a second Ni Sepharose™ excel column. Untagged WRN protein was eluted from the column with buffer A supplemented with 20 mM imidazole, dialyzed overnight into buffer B (50 mM Tris, pH 7.5, 1 mM TCEP, 10% Glycerol) supplemented with 150 mM NaCl and loaded onto a Heparin column. Proteins were eluted with a step gradient of buffer B supplemented with 150 mM, 200 mM, 300 mM and 500 mM NaCl. […]
On the technique in general: ADP-Glo turns the ADP formed in a reaction into a luminescent signal.

For `CC(C)(O)c1cc(CN(C(=O)Cn2cc(-c3ccccc3)cn2)C2C=CS(=O)(=O)C2)ccn1` (stereo not shown) [I-76, N-(1,1-dioxo-2,3-dihydro-1lambda6-thiophen-3-yl)-N-{[2-(2-hydroxypropan-2-yl)pyridin-4-yl]methyl}-2-(4-phenyl-1H-pyrazol-1-yl)acetamide], the IC50 is less than 0.5 µM.
For the compound `O=C(CCc1cc2ccccc2s1)N(Cc1ccncc1)C1C=CS(=O)(=O)C1` (stereo not shown) [I-495, 3-(1-benzothiophen-2-yl)-N-(1,1-dioxo-2,3-dihydro-1lambda6-thiophen-3-yl)-N-[(pyridin-4-yl)methyl]propanamide], the IC50 was greater than 50 µM.
Turning to `COc1cc(CN(C(=O)C2Cc3cc(-c4ccc(F)cc4)ccc32)C2C=CS(=O)(=O)C2)ccn1` (stereo not shown) [I-176, N-(1,1-dioxo-2,3-dihydro-1lambda6-thiophen-3-yl)-3-(4-fluorophenyl)-N-[(2-methoxypyridin-4-yl)methyl]bicyclo[4.2.0]octa-1,3,5-triene-7-carboxamide], the IC50 fell in the range of 0.5 to 5 µM.
For the compound `Cc1cccn1-c1ccc(CC(=O)N(Cc2ccn(C)c(=O)c2)C2C=CS(=O)(=O)C2)c(F)c1` (stereo not shown) [I-173, N-(1,1-dioxo-2,3-dihydro-1lambda6-thiophen-3-yl)-2-[2-fluoro-4-(2-methyl-1H-pyrrol-1-yl)phenyl]-N-[(1-methyl-2-oxo-1,2-dihydropyridin-4-yl)methyl]acetamide], the IC50 was in the range of 0.5 to 5 µM.
As for `O=C(Cn1ccc(-c2ccccc2)n1)N(Cc1ccncc1)C1C=CS(=O)(=O)C1` (stereo not shown) [I-450, N-(1,1-dioxo-2,3-dihydro-1lambda6-thiophen-3-yl)-2-(3-phenyl-1H-pyrazol-1-yl)-N-[(pyridin-4-yl)methyl]acetamide], the IC50 was greater than 50 µM.
For the compound `O=C(Cn1nc(-c2ccc(F)cc2)oc1=O)N(Cc1ccncc1)C1C=CS(=O)(=O)C1` (stereo not shown) [I-349, N-(1,1-dioxo-2,3-dihydro-1lambda6-thiophen-3-yl)-2-[5-(4-fluorophenyl)-2-oxo-2,3-dihydro-1,3,4-oxadiazol-3-yl]-N-[(pyridin-4-yl)methyl]acetamide], the IC50 was 10 to 50 µM.
Take `COc1cccc(CN(C(=O)Cc2ccc(-n3cccc3)cc2)C2C=CS(=O)(=O)C2)c1` (stereo not shown) [I-234, N-(1,1-dioxo-2,3-dihydro-1lambda6-thiophen-3-yl)-N-[(3-methoxyphenyl)methyl]-2-[4-(1H-pyrrol-1-yl)phenyl]acetamide]: the IC50 fell in the range of 5 to 10 µM.
As to `O=C(Cc1nc(C(F)(F)F)cs1)N(Cc1ccncc1)C1C=CS(=O)(=O)C1` (stereo not shown) [I-371, N-(1,1-dioxo-2,3-dihydro-1lambda6-thiophen-3-yl)-N-[(pyridin-4-yl)methyl]-2-[4-(trifluoromethyl)-1,3-thiazol-2-yl]acetamide], the IC50 is greater than 50 µM.
As to `COc1cc(CN(C(=O)Cc2ccc(-c3ccc(F)c(F)c3)cc2F)C2C=CS(=O)(=O)C2)ccn1` (single isomer, unassigned) [I-35], the IC50 is less than 0.5 µM.
`Cc1cccc(-c2nc(CC(=O)N(Cc3ccncc3)C3C=CS(=O)(=O)C3)cs2)c1` (stereo not shown) [I-333, N-(1,1-dioxo-2,3-dihydro-1lambda6-thiophen-3-yl)-2-[2-(3-methylphenyl)-1,3-thiazol-4-yl]-N-[(pyridin-4-yl)methyl]acetamide]: the IC50 is greater than 50 µM.
For `O=C(Cc1ccc(-n2cccc2)cc1)N(Cc1nc(-c2cccnc2)cs1)C1C=CS(=O)(=O)C1` (stereo not shown) [I-146, N-(1,1-dioxo-2,3-dihydro-1lambda6-thiophen-3-yl)-N-{[4-(pyridin-3-yl)-1,3-thiazol-2-yl]methyl}-2-[4-(1H-pyrrol-1-yl)phenyl]acetamide], the IC50 fell in the range of 0.5 to 5 µM.
Turning to `COc1cc(CN(C(=O)Cc2ccc(-c3cccc(F)c3)cc2F)C2C=CS(=O)(=O)C2)ccn1` (stereo not shown) [I-91, 2-{3,3′-difluoro-[1,1′-biphenyl]-4-yl}-N-(1,1-dioxo-2,3-dihydro-1lambda6-thiophen-3-yl)-N-[(2-methoxypyridin-4-yl)methyl]acetamide], the IC50 is 0.5 to 5 µM.
For the compound `O=C(Cc1csc(C2CC2)n1)N(Cc1ccncc1)C1C=CS(=O)(=O)C1` (stereo not shown) [I-438, 2-(2-cyclopropyl-1,3-thiazol-4-yl)-N-(1,1-dioxo-2,3-dihydro-1lambda6-thiophen-3-yl)-N-[(pyridin-4-yl)methyl]acetamide], the IC50 was greater than 50 µM.
In the case of `O=C(Cc1ccc(-n2cccc2)cc1Cl)N(Cc1ccncc1)C1C=CS(=O)(=O)C1` (stereo not shown) [I-208, 2-[2-chloro-4-(1H-pyrrol-1-yl)phenyl]-N-(1,1-dioxo-2,3-dihydro-1lambda6-thiophen-3-yl)-N-[(pyridin-4-yl)methyl]acetamide], the IC50 lay in the range of 0.5 to 5 µM.
In the case of `O=C(C1C2CCC1C2)N(Cc1ccncc1)C1C=CS(=O)(=O)C1` (stereo not shown) [I-619, N-(1,1-dioxo-2,3-dihydro-1lambda6-thiophen-3-yl)-N-[(pyridin-4-yl)methyl]bicyclo[2.1.1]hexane-5-carboxamide], the IC50 was greater than 50 µM.
For the compound `O=C(Cc1ccc(C(F)(F)F)cc1F)N(Cc1ccncc1)C1C=CS(=O)(=O)C1` (stereo not shown) [I-260, N-(1,1-dioxo-2,3-dihydro-1lambda6-thiophen-3-yl)-2-[2-fluoro-4-(trifluoromethyl)phenyl]-N-[(pyridin-4-yl)methyl]acetamide], the IC50 was 5 to 10 µM.
In the case of `COc1cc(CN(C(=O)Cc2ccc(-n3cccc3)cc2F)C2C=CS(=O)(=O)C2)ccn1` (stereo not shown) [I-95, N-(1,1-dioxo-2,3-dihydro-1lambda6-thiophen-3-yl)-2-[2-fluoro-4-(1H-pyrrol-1-yl)phenyl]-N-[(2-methoxypyridin-4-yl)methyl]acetamide], the IC50 fell in the range of 0.5 to 5 µM.
Take `CC(C)(O)c1cc(CN(C(=O)Cc2ccc(OC(F)(F)C(F)(F)F)cc2)C2C=CS(=O)(=O)C2)ccn1` (single isomer, unassigned) [I-661]: the IC50 was less than 0.5 µM.
On to `Cc1sc(CN(C(=O)Cc2ccc(-c3ccc(F)c(F)c3)cc2F)C2C=CS(=O)(=O)C2)nc1C1CC1` (stereo not shown) [I-754, N-[(4-cyclopropyl-5-methyl-1,3-thiazol-2-yl)methyl]-N-(1,1-dioxo-2,3-dihydro-1lambda6-thiophen-3-yl)-2-{3,3′,4′-trifluoro-[1,1′-biphenyl]-4-yl}acetamide], for which the IC50 fell in the range of 0.5 to 5 µM.
`COc1cc(CN(C(=O)C2Cc3cc(C(F)(F)F)ccc3O2)[C@@H]2C=CS(=O)(=O)C2)ccn1` (stereo partly drawn) [I-114, N-[(3R)-1,1-dioxo-2,3-dihydro-1lambda6-thiophen-3-yl]-N-[(2-methoxypyridin-4-yl)methyl]-5-(trifluoromethyl)-2,3-dihydro-1-benzofuran-2-carboxamide]: the IC50 lay in the range of 0.5 to 5 µM.
As for `COc1cc(CN(C(=O)C(c2ccc(-c3ccc(F)c(F)c3)cc2F)n2ccc(C)n2)[C@@H]2C=CS(=O)(=O)C2)ccn1` (single isomer, unassigned) [I-750, (2R*)-N-[(3R)-1,1-dioxo-2,3-dihydro-1lambda6-thiophen-3-yl]-N-[(2-methoxypyridin-4-yl)methyl]-2-(3-methyl-1H-pyrazol-1-yl)-2-{3,3′,4′-trifluoro-[1,1′-biphenyl]-4-yl}acetamide], the figure is less than 0.5 µM.
As for `CC(O)(c1cc(CN(C(=O)Cn2cc(-c3cc(F)c(F)c(F)c3)cn2)C2C=CS(=O)(=O)C2)ccn1)C1CC1` (stereo not shown) [I-826, N-{[2-(1-cyclopropyl-1-hydroxyethyl)pyridin-4-yl]methyl}-N-(1,1-dioxo-2,3-dihydro-1lambda6-thiophen-3-yl)-2-[4-(3,4,5-trifluorophenyl)-1H-pyrazol-1-yl]acetamide], the IC50 is less than 0.5 µM.
